Results from article PMC12054364, “Structure of the Fab fragment of a humanized 5E5 antibody to a cancer-specific Tn-MUC1 epitope” (Acta Crystallographica Section D: Structural Biology, 2025).
Ends that are not written are not given here. * marks the point of attachment. αGalNAc = CC(=O)N[C@@H]1[C@@H](O)[C@@H](O)[C@@H](CO)O[C@@H]1*

Legend:
[1] = target: h-5E5 mAb; assay: SPR binding of PAPGS*T*AP to immobilized h-5E5 mAb; parameters: species or system humanized; conditions: amine-coupled mAb (∼25 000 RU), same conditions as for the Fab, steady-state
Procedure: (§1) The binding kinetics of the h-5E5 Fab to doubly glycosylated Tn-MUC1 peptides were studied by surface plasmon resonance (SPR) using a Biacore T200 instrument (GE Healthcare). All experiments were performed at 25°C with HBS-EP (10 mM HEPES, 150 mM NaCl, 3 mM EDTA, 0.005% Tween 20 pH 7.4) as the running buffer. The purified h-5E5 Fab and an irrelevant 1104 Fab were immobilized [∼10 000 resonance units (RUs) each] on a Series S Sensor Chip CM7 (Cytiva) using an amine-coupling kit (Cytiva) in 10 mM acetate buffer pH 4.0 (Cytiva). Serial dilutions of doubly glycosylated Tn-MUC1 peptides in HBS-EP buffer were injected at a flow rate of 20 µl min^−1 over flow cells containing immobilized h-5E5 Fab and the 1104 Fab (as a negative control). The reference flow cell was blocked with ethanolamine. The association time was set to 30 s and the dissociation time to 60 s. After each run, the sensor chip was regenerated with HBS-EP buffer. The concentrations of the analytes injected were 6.25, 12.5, 25, 50 and 100 µM. […] Reference flow cell subtracted sensorgrams were analyzed with BIAevaluation Software v.3.2 (Cytiva) and affinities were determined by steady-state analysis from three experimental replicates. PAPGS*T*AP binding to amine-coupled 5E5 mAb (∼25 000 RUs) was determined under the same conditions described for the Fab.

[2] = tested on: 1104 Fab; assay: SPR negative control: glycopeptides over immobilized irrelevant 1104 Fab; assay type: binding; conditions: amine-coupled Fab 1104 (∼10 000 RU), peptide 6.25-100 µM, HBS-EP pH 7.4, 25°C
Procedure: as §1

[3] = target: h-5E5 Fab; assay: SPR binding of doubly glycosylated Tn-MUC1 peptides to immobilized h-5E5 Fab; parameters: species or system humanized
Procedure: The binding kinetics of the h-5E5 Fab to doubly glycosylated Tn-MUC1 peptides were studied by surface plasmon resonance (SPR) using a Biacore T200 instrument (GE Healthcare). All experiments were performed at 25°C with HBS-EP (10 mM HEPES, 150 mM NaCl, 3 mM EDTA, 0.005% Tween 20 pH 7.4) as the running buffer. The purified h-5E5 Fab and an irrelevant 1104 Fab were immobilized [∼10 000 resonance units (RUs) each] on a Series S Sensor Chip CM7 (Cytiva) using an amine-coupling kit (Cytiva) in 10 mM acetate buffer pH 4.0 (Cytiva). Serial dilutions of doubly glycosylated Tn-MUC1 peptides in HBS-EP buffer were injected at a flow rate of 20 µl min^−1 over flow cells containing immobilized h-5E5 Fab and the 1104 Fab (as a negative control). The reference flow cell was blocked with ethanolamine. The association time was set to 30 s and the dissociation time to 60 s. After each run, the sensor chip was regenerated with HBS-EP buffer. The concentrations of the analytes injected were 6.25, 12.5, 25, 50 and 100 µM. The analytes were two doubly glycosylated Tn-MUC1 peptides, PAPGS*T*AP and APGS*T*AP, where * represents GalNAc. Reference flow cell subtracted sensorgrams were analyzed with BIAevaluation Software v.3.2 (Cytiva) and affinities were determined by steady-state analysis from three experimental replicates. PAPGS*T*AP binding to amine-coupled 5E5 mAb (∼25 000 RUs) was determined under the same conditions described for the Fab.

[4] = target: Fab fragment of the humanized 5E5 antibody (h-5E5 Fab) (humanized from mouse | human) (UniProt P01834); assay: SPR; Biacore T200; h-5E5 Fab amine-coupled (~10 000 RU) on a CM7 chip; glycopeptides flowed at 6.25-100 µM, 20 µl/min; 25°C; HBS-EP (10 mM HEPES, 150 mM NaCl, 3 mM EDTA, 0.005% Tween 20 pH 7.4); steady-state analysis, three replicates
[5] = target: humanized 5E5 monoclonal antibody (h-5E5 mAb) (humanized from mouse | human) (UniProt P01834); assay: SPR; 5E5 mAb amine-coupled (~25 000 RU); PAPGS*T*AP flowed; same conditions as for the Fab (25°C, HBS-EP); steady-state analysis
[6] = immobilized h-5E5 Fab, HBS-EP pH 7.4, 25°C

| Molecule | Kd [1] | binding to control surface [2] | Kd ([3]; Biacore T200, 25°C, HBS-EP (10 mM HEPES, 150 mM NaCl, 3 mM EDTA, 0.005% Tween 20 pH 7.4), Fab amine-coupled ∼10 000 RU on CM7 chip, peptide 6.25-100 µM, 20 µl/min, association 30 s, dissociation 60 s, steady-state analysis, three experimental replicates) | observed Rmax [3, 6] | observed Rmax as % of the theoretical Rmax [3, 6] | Kd [4] | Kd [5] |
| --- | --- | --- | --- | --- | --- | --- | --- |
| PAPGS*T*AP [doubly glycosylated Tn-MUC1 peptide, where * represents GalNAc] | 43.9 µM | Neither glycopeptide bound to the control surface | 40.7 ± 0.1 µM | 165 RU | 70% | – | – |
| PAPGS(αGalNAc)T(αGalNAc)AP [doubly glycosylated Tn-MUC1 peptide PAPGS*T*AP] | – | – | – | – | – | 40.7 µM | 43.9 µM |
| APGS(αGalNAc)T(αGalNAc)AP [doubly glycosylated Tn-MUC1 peptide APGS*T*AP] | – | – | – | – | – | 60.9 µM | – |
